Source: US9233920B2, “Process for the preparation of dihydropyrrole derivatives” (Syngenta Participations AG, priority 2010, dated 2016)

Columns and labels:
Type in all cases: in vivo
Heliothis virescens = Heliothis virescens (tobacco budworm) egg/larval test on artificial diet in 24-well microtiter plate; conditions: Heliothis virescens eggs 0-24 h old, 4 days incubation, egg mortality, larval mortality, growth regulation
Protocol: (§1) These examples illustrate the comparative insecticidal and acaricidal properties of compounds A23 and A24. The tests were performed as follows:
Heliothis virescens (Tobacco Budworm):
Eggs (0-24 h old) were placed in 24-well microtiter plate on artificial diet and treated with test solutions at an application rate of 12.5 ppm (concentration in well 18 ppm) by pipetting. After an incubation period of 4 days, samples were checked for egg mortality, larval mortality, and growth regulation.

Diabrotica balteata = Diabrotica balteata (corn root worm) L2 larvae test on artificial diet in 24-well microtiter plate; conditions: 5 days incubation, larval mortality and growth regulation
Protocol: as §1
Diabrotica balteata (Corn Root Worm):
A 24-well microtiter plate (MTP) with artificial diet was treated with test solutions at an application rate of 12.5 ppm (concentration in well 18 ppm) by pipetting. After drying, the MTP's were infested with L2 larvae (6-10 per well). After an incubation period of 5 days, samples were checked for larval mortality and growth regulation.

Thrips tabaci = Thrips tabaci (onion thrips) sunflower leaf disc spray test; conditions: Thrips tabaci mixed ages on sunflower leaf discs, 7 days incubation, mortality
Protocol: as §1
Thrips tabaci (Onion Thrips):
[…] After drying, the leaf discs were infested with an […] population of mixed ages. After an incubation period of 7 days, samples were checked for mortality.

| Compound | % Control at 12.5 ppm (Heliothis virescens) | % Control at 200 ppm (Heliothis virescens) | % Control at 12.5 ppm (Diabrotica balteata) | % Control at 200 ppm (Diabrotica balteata) | % Control at 12.5 ppm (Thrips tabaci) | % Control at 200 ppm (Thrips tabaci) |
| --- | --- | --- | --- | --- | --- | --- |
| Cc1cc(C2=NC[C@@](c3cc(Cl)cc(Cl)c3)(C(F)(F)F)C2)ccc1C(=O)NC1CS(=O)(=O)C1 [Compound A23, 4-[(3R)-3-(3,5-dichlorophenyl)-3-(trifluoromethyl)-2,4-dihydropyrrol-5-yl]-N-(1,1-dioxothietan-3-yl)-2-methyl-benzamide] | 100% | 100% | 100% | 100% | 100% | 100% |
| Cc1cc(C2=NC[C@](c3cc(Cl)cc(Cl)c3)(C(F)(F)F)C2)ccc1C(=O)NC1CS(=O)(=O)C1 [Compound A24, 4-[(3S)-3-(3,5-dichlorophenyl)-3-(trifluoromethyl)-2,4-dihydropyrrol-5-yl]-N-(1,1-dioxothietan-3-yl)-2-methyl-benzamide] | 50% | 100% | 0% | 100% | 40% | 100% |
